These results are taken from patent publication US9422300B2, “Bisulfate of janus kinase (JAK) inhibitor and preparation method therefor” (Jiangsu Hengrui Medicine Co., Ltd., priority 2013, dated 2016).

A short description of data set [1]: Pharmacokinetic parameters in rhesus monkeys. It counts as in vivo. The conditions noted are these: for AUC(0-t) / Cmax / MRT / t1/2: plasma, rhesus monkeys, single dose; for AUC(0-t) / Cmax / MRT / individual variation of in vivo exposure / t1/2: 50 mg/kg. How it is done:
The pharmacokinetic parameters of the compound of formula (IV) and its different salt forms were studied in rhesus monkeys, and the properties of the different forms of the compounds were evaluated in detail. Four rhesus monkeys were used as test animals, half male and half female. The rhesus monkeys were administered a single dose of 50 mg/kg. Multi-crossover design was adopted to administer different drugs to test animals, and the convalescence from each cycle was three days. Blood samples (0.5 mL) were taken from the femoral vein before administration (0 h), and at 0.25 h, 0.5 h, 1 h, 2 h, 4 h, 6 h, 8 h and 24 h after administration, stored in heparinized tubes, shaken well, and centrifuged for 10 minutes at 3500 rpm to separate blood plasma. The plasma samples were stored at low temperature, LC-MS/MS was used to measure drug concentration in plasma and liver, and pharmacokinetic parameters were analyzed by WinNonlin 5.3 software.

For data set [2], the system named is rheumatoid arthritis patients. The settings on record: phase III clinical trial, cited from earlier work.

Read-outs that look alike come from different tables or passages of the source.

For orientation: AUC(0-t) means exposure summed from dosing to a finite time, without extrapolation to infinity. Broadly, the Cmax is the highest concentration seen after dosing. Usually MRT stands for a mean duration of stay, worked out from the concentration-time curve. In the case of `COc1nsc(NC(=O)N2C[C@H]3C[C@H](N(C)c4ncnc5[nH]ccc45)C[C@H]3C2)n1` [Bisulfate, (3aR,5s,6aS)—N-(3-methoxyl-1,2,4-thiadiazol-5-yl)-5-(methyl(7H-pyrrolo[2,3-d]pyrimidin-4-yl)amino)hexahydrocyclopenta[c]pyrrole-2(1H)-carboxamide bisulfate], the area under the curve AUC(0-t) in data set [1] (both sexes, rhesus monkey, read-out: AUC(0-t)) was found to be 63000 ± 53600 ng·h/mL. The Cmax in data set [1] (both sexes, rhesus monkey, read-out: Cmax) turned out to be 9940 ± 5320 ng/mL. For the same molecule, the MRT in data set [1] (both sexes, rhesus monkey, read-out: MRT) was 6.3 ± 1.7 h. The “increase of in vivo exposure relative to that of the base” value in data set [1] (monkeys, 50 mg/kg single dose) amounted to 50%. In addition, the “individual variation of in vivo exposure” value in data set [1] (monkeys, 50 mg/kg single dose, listed as bisulfate salt) is on record as “relatively small individual variation”. The molecule further yielded a t1/2 in data set [1] of 5.3 ± 1.6 h.
`COc1nsc(NC(=O)N2C[C@H]3C[C@H](N(C)c4ncnc5[nH]ccc45)C[C@H]3C2)n1` [Compound of formula (IV), (3aR,5s,6aS)—N-(3-Methoxy-1,2,4-thiadiazol-5-yl)-5-(methyl(7H-pyrrolo[2,3-d]pyrimidin-4-yl)amino)hexahydrocyclopenta[c]pyrrol-2(1H)-carboxamide]: in data set [1] (monkeys, 50 mg/kg single dose), the in vivo exposure was determined as 41111 ng/ml*h and the “individual variation of in vivo exposure” value is on record as “relatively large individual variation”. In data set [1], the “AUC(0-t)” value stood at 41111 ± 59593 ng·h/mL, the Cmax was 6176 ± 8838 ng/mL, the MRT was 8.8 ± 5.16 h and the t1/2 is 6.3 ± 3.5 h.
On to `C[C@@H]1CCN(C(=O)CC#N)C[C@@H]1N(C)c1ncnc2[nH]ccc12` [tofacitinib], for which the “efficacy compared with methotrexate” value in data set [2] (5 mg/10 mg as a single drug) is reported as “significantly better than methotrexate”. Also, the “efficacy in reducing the progression of internal structural damage compared with methotrexate” value in data set [2] (period of six months) is “slightly better than methotrexate”.
Citrate: in data set [1], the “AUC(0-t)” value came out at 44357 ± 45012 ng·h/mL, the Cmax came to 5627 ± 4201 ng/mL, the MRT was found to be 10.0 ± 7.6 h and the t1/2 turned out to be 6.3 ± 5.5 h.
